Test results from US20100216722A1, “USE OF THE PEPTIDE PRO-GLY-THR-CYS-GLU-ILE-CYS-ALA-TYR-ALA-ALA-CYS-THR-GLY-CYS AS A THERAPEUTIC AGENT” (priority 2007, published 2010).
Positions of bridges follow the written chain, without caps; N, C: chain ends. Residues, ends and D or L forms follow the SMILES beside them.

Assays:
[1] = system: HIV-1IIIB; test: HIV-1 antiviral assay (CPE reduction, MTS) in CEM-SS cells; assay type: cell-based; conditions: peptide 10 micrograms per ml, 6 days post-infection
[2] = system: hepatitis B virus (HBV) ayw strain; test: HBV replication assay in HepG2-2.2.15 cells (TaqMan PCR of secreted HBV DNA); assay type: cell-based; conditions: peptide 10 micrograms per ml, six days, HBV DNA in supernatant
[3] = system: A549 cells; test: Propidium iodide cell cycle assay; assay type: cell-based, human; conditions: peptide 10 micrograms per ml, 24 hours, Propidium iodide FACS
Description: Human A549 cells (carcinomic human alveolar basal epithelial cells) were utilized in the experiments employing the Propidium iodide cell cycle assay. The eukaryotic cell cycle is a series of events that take place in a cell leading to its replication. Propidium iodide is an intercalating agent and a fluorescent molecule that can be used to stain DNA. Cells were incubated for 24 hours with test peptide—10 micrograms per ml—or left untreated. […] The cells were pipetted into 2.5 ml absolute EtOH (final concentration approx. 70%) and incubated on ice for 15 min. Thereafter, cells were pelleted at 1500 rpm for 5 min and resuspended in Propidium iodide solution in PBS. After incubation for 40 min at 37° C., cells were analyzed in the FACS.

[4] = system: Human Peripheral Blood Mononuclear Cells (PBMC); test: T cell proliferation assay (PHA, 3H-thymidine); assay type: cell-based; conditions: peptide 10 micrograms per ml, 3H-thymidine incorporation
Description: (§1) Human Peripheral Blood Mononuclear Cells (PBMC) were obtained from normal human donors. The T cell proliferation was induced by stimulation of the cells with the T cell mitogen phytohemagglutinin (PHA), either in the absence (positive proliferation control), or in the presence of test peptide—10 micrograms per ml—to examine their effects on the T cell proliferating response. 10^5/well PBMC were plated in 96-well microtiter plates and assayed in duplicate with the peptide. Cell cultures were incubated at 37° C. for 3 days in a 5% CO2 incubator and were thereafter pulsed with 1 microCi/well ^3H-thymidine for additional 12 hours of culture. At the end of incubation time, the plates were harvested and the cells counted by liquid scintillation for the incorporation of ^3H-thymidine as a measure of T cell proliferation.

[5] = system: Human Peripheral Blood Mononuclear Cells (PBMC); test: B cell proliferation assay (SAC plus Interleukin-2, 3H-thymidine); assay type: cell-based; conditions: peptide 10 micrograms per ml, 3H-thymidine incorporation
Description: as §1, with “The B” for “The T”, “the B” for “the T”, “mitogen Staphylococcus aureus Cowans I (SAC) plus Interleukin-2,” for “mitogen phytohemagglutinin (PHA),”, “cell” for “cell proliferating”, “of B” for “of T”

[6] = system: RAW 264.7 cells; test: Phagocytosis assay (Fluorescein-labeled Escherichia coli, flow cytometry); assay type: cell-based, mouse; conditions: peptide 10 micrograms per ml, 30 min before Fluorescein-labeled E. coli
Description: Cells were incubated in 12×75 mm tubes at 37° C. with test peptide—10 micrograms per ml—for 30 min prior to adding Fluorescein-labeled Escherichia coli bacteria as the agent to be ingested. […] The samples were then analyzed by flow cytometry to determine the amount of phagocytosis as a function of brightness (the greater the phagocytic activity, the more fluorescence in the macrophage population). Data are reported as % positive and the mean fluorescence intensity (MFI) of positively stained cells.

[7] = system: A549 cells; test: Apoptosis induction assay (Annexin-5); assay type: cell-based, human; conditions: apoptosis in A549 cells, peptide 10 micrograms per ml, 24 hours
From the text: Human A549 cells (carcinomic human alveolar basal epithelial cells) were utilized in the experiments employing the Annexin-5 apoptosis assay. Annexin-5 is a member of a highly conserved protein family that binds acidic phospholipids in a calcium-dependent manner. […] Phosphatidylserine is translocated from the inner side of the plasma membrane to the outer layer when cells undergo death by apoptosis or cell necrosis and serves as a signal by which cell destined for death are recognized by phagocytes. Test peptide—10 micrograms per ml—were exposed for 24 hours to the A549 cells before they were analyzed for signs of apoptosis.

[8] = system: A549 cells; test: Apoptosis prevention assay (C2 ceramide, Annexin-5); assay type: cell-based, human; conditions: A549 cells pretreated 30 min with peptide 10 micrograms per ml, then C2 ceramide
From the text: Human A549 cells (carcinomic human alveolar basal epithelial cells) were utilized in the experiments employing the Annexin-5 apoptosis assay. Annexin-5 is a member of a highly conserved protein family that binds acidic phospholipids in a calcium-dependent manner. […] Phosphatidylserine is translocated from the inner side of the plasma membrane to the outer layer when cells undergo death by apoptosis or cell necrosis and serves as a signal by which cell destined for death are recognized by phagocytes. A549 cells were pretreated for 30 min with test peptide—10 micrograms per ml—followed by the exposure to C2 ceramide. Ceramide mediates cell apoptosis through the activation of the mitogen activating protein kinase (MAPK) and the stress activated kinase (JNK/SAPK). C2 ceramide is a synthetic, membrane soluble analog of ceramide.

[9] = system: spleen cells of Ovalbumin-immunized Balb/c mice; test: Th1/Th2 cytokine profiling assay (Ovalbumin-restimulated spleen cells, CBA kit); assay type: cell-based, mouse; conditions: peptide 10 micrograms per ml; Ovalbumin restimulation; 72 hours
Description: The Balb/c mice (originated in 1923, it is a popular strain and is used in many different research disciplines. […] On day 50, spleens of the mice were harvested (3 weeks after last boost with Ovalbumin). Cells were cultured (2×10^5/well in triplicate) and incubated with culture medium or test peptide—10 micrograms per ml—for 30 min. Thereafter, additional Ovalbumin was added to the cells at 10 micrograms/ml for in vitro restimulation of the cells. 72 hours later, cell supernatants were harvested and assayed using the Becton Dickinson Mouse Th1/Th2 Cytokine CBA Kit. This kit can be used to measure Interleukin-2 (IL-2), Interleukin-4 (IL-4), Interleukin-5 (IL-5), Interferon-γ (IFN-γ), and Tumor Necrosis Factor-α (TNF-α) protein levels in a single sample. The kit performance has been optimized for analysis of physiologically relevant concentrations (pg/ml levels) of specific cytokine proteins in tissue culture supernatants and serum samples.

[10] = system: macrophages differentiated from human PBMC; test: TNF alpha production assay (LPS-stimulated macrophages, ELISA); assay type: cell-based; conditions: peptide 10 micrograms per ml, 30 min before lipopolysaccharide 200 ng/ml, overnight
Description: Human Peripheral Blood Mononuclear Cells (PBMC) were obtained from normal human donors. The macrophages were prepared by adherence of PBMC to the plastic wells of the plates. After 8 days in culture in the presence of recombinant human macrophage-colony stimulating factor at 2 ng/ml, differentiated macrophages were preincubated with test peptide—10 micrograms per ml—for 30 min, followed by in-well stimulation by the addition of lipopolysaccharide at a final concentration of 200 ng/ml. Not stimulated macrophages served as negative background control. After overnight incubation, supernatants from the control and LPS-stimulated cultures were harvested and assayed for TNF alpha production employing a TNF alpha specific ELISA.

[11] = system: Primary Human endothelial cells (HUVEC); test: Endothelial cell migration assay; assay type: cell-based; conditions: peptide 10 micrograms per ml, 22 hours
Description: Endothelial cell migration is a prerequisite for the process of neo-vascularization or angiogenesis which is crucial for on-site recruitment of blood vessel formation. […] Thereafter, designated concentration of test peptide—10 micrograms per ml—was added in duplicate wells. The endothelia were allowed to migrate for 22 hours at 37° C., then, migrated cells were fixed and stained with Hoechst 33342 dye. Images of 3 fields per insert were taken and the number of migrated cells per field were quantified using the ImageProPlus software. Data were analyzed for the average number of the migrated cells and standard deviation of six data points for each treatment condition. Active test peptide against HUVEC migration was determined based on 50% inhibition of migrated cells as compared with the control. Statistic p values were computed using the Student's t-test.

[12] = system: HUVEC; test: Endothelial tube formation assay; assay type: cell-based, human; conditions: peptide 10 micrograms per ml, 20 hours
Description: The endothelial tube formation assay is based on the ability of endothelial cells to form three-dimensional capillary-like tubular structures when cultured on a gel of basement membrane extract. The endothelial tube formation assay represents a powerful model for studying inhibition and induction of angiogenesis. Pre-labeled HUVEC with Calcein AM were seeded in a 96-well culture plate coated with extracellular metrix (Chemicon international Cat. ECM625) and treated with test peptide—10 micrograms per ml—in full growth medium. Positive control wes vehicle only. The endothelial cells were allowed to form tubes foe 20 hours and were then examined under an inverted fluorescent microscope. Duplicate wells for each treatment were photographed and quantitatively analyzed for an average tubule length using image analysis software ImageProPlus. Raw data were expressed as average tubule lengths in pixels±standard deviation. Statistic p values were computed using the Student's t-test.

[13] = in vitro; conditions: human, CEM-SS cells
[14] = in vitro; conditions: human, MRC-5 cells (embryonal lung fibroblasts)
Description: (§2) For cytotxicity testing, MRC-5 cells were seeded at 2,500 cells/well in 96 well plates using growth medium. […] The following day, peptide was added and tested in duplicates. After a 6 days incubation period, cell viability was measured using CellTiter 96 Solution (Promega). Plates were incubated for additional 4 hours at 37° C. Adhesive plate sealers were used in place of lids, the sealed plates were inverted several times to mix the soluble formazan product and the plate was read spectrophotometrically at 490/560 nm with a Molecular Devices Vmax plate reader.

[15] = system: HCMV strain AD169; test: HCMV plaque reduction assay in MRC-5 cells; conditions: HCMV AD169 in MRC-5 cells; peptide 10 micrograms per ml; 7-10 days
[16] = Cytotoxicity in HepG2-2.2.15 cells (dye uptake cell viability); conditions: human
[17] = system: HepG2-2.2.15 cells; test: as above; conditions: HepG2-2.2.15 cells; peptide 10 micrograms per ml; dye uptake assay
[18] = system: MRC-5 cells; conditions: human, 6 days
Description: as §2

## CC[C@H](C)[C@@H]1NC(=O)[C@H](CCC(=O)O)NC(=O)[C@@H](NC(=O)[C@@H](NC(=O)CNC(=O)[C@@H]2CCCN2)[C@@H](C)O)CSSC[C@@H]2NC(=O)[C@H](C)NC(=O)[C@H](C)NC(=O)[C@H](Cc3ccc(O)cc3)NC(=O)[C@H](C)NC(=O)[C@H](CSSC[C@@H](C(=O)O)NC(=O)CNC(=O)[C@H]([C@@H](C)O)NC2=O)NC1=O [Guanylin, Pro-Gly-Thr-Cys-Glu-Ile-Cys-Ala-Tyr-Ala-Ala-Cys-Thr-Gly-Cys-OH] (H-PGTCEICAYAACTGC-OH; disulfide 4-12, 7-15 (inferred); N-terminus assumed)
[1]
  % CPE reduction in HIV-1 infected CEM-SS cells: 13.2%
[2]
  % inhibition of HBV replication in HEP G2 cells: 21.7%
[3]
  Cell cycle analysis G0/G1: 58.7
  Cell cycle analysis G2/M: 9.8
  Cell cycle analysis S: 31.5
[4]
  % of PHA induced control: 93.7%
[5]
  % of SAC/IL2 induced control: 97.0%
[6]
  % of control phagocytosis: 105.9%
[7]
  % of induction: 1.5%
[8]
  % prevention of ceramide induced apoptosis: 0.0%
[9]
  IFNγ spleen cells; TH1 response (% of control): 62.0 % of control
  IL-2 spleen cells (% of control): 135.5 % of control
  IL-4 spleen cells; TH2 response (% of control): 143.8 % of control
  IL-5 spleen cells; TH2 response (% of control): 82.6 % of control
  TNF-a spleen cells; TH1 response (% of control): 108.5 % of control
[10]
  % of LPS induction: 96.6%
[11]
  % inhibition of migration: 24.0%
[12]
  % inhibition of tube formation: 10.0%
[13]
  viability at 10 micrograms per ml: 100%
[14]
  viability at 144 h: 100%
[15]
  % plaque reduction: 0.0%
[16]
  viability at 144 h, 10 micrograms per ml: 91.2%

## CC(C)(C)NC(=O)[C@@H]1CN(Cc2cccnc2)CCN1C[C@@H](O)C[C@@H](Cc1ccccc1)C(=O)N[C@H]1c2ccccc2C[C@H]1O [Indinavir, indinavir]
[1]
  % CPE reduction in HIV-1 infected CEM-SS cells: 100%

## Nc1ccn([C@@H]2CS[C@H](CO)O2)c(=O)n1 [3TC, Lamivudine, reference compound]
[17]
  % Cell viability: 95.8%

## Nc1nc(O)c2ncn(COC(CO)CO)c2n1 [Ganciclovir, reference compound]
[18]
  % Cell viability: 100%
[15]
  % plaque reduction: 100%

## Cc1cn([C@H]2C[C@H](N=[N+]=[N-])[C@@H](CO)O2)c(=O)[nH]c1=O [AZT, zidovudine]
[1]
  % CPE reduction in HIV-1 infected CEM-SS cells: 99%
